± gives the expanded uncertainty stated by the source.
Experiment: refractive index (Na D-line) (dimensionless)
Settings: 298.2 K, 101.33 kPa, Liquid

Row | Structure (SMILES) | refractive index (Standard Abbe refractometry) | refractive index
1 | CCCCCCCCOS(=O)(=O)[O-].CCn1cc[n+](C)c1 [1-ethyl-3-methylimidazolium octyl sulfate] | 1.471 ± 0.0006 | –
2 | CCCCCCCC[n+]1ccn(C)c1.COCCOCCOS(=O)(=O)[O-] [1-methyl-3-octylimidazolium 2-(2-methoxyethoxy)ethyl sulfate] | – | 1.466 ± 0.0009
3 | c1ccccc1 [benzene] | – | 1.4972 ± 0.0009
4 | CCCCCCC [heptane] | – | 1.385 ± 0.0009
5 | CCCCCCCCCCCCCCCC [hexadecane] | – | 1.4318 ± 0.0009

— the NIST ThermoML archive (doi:10.1021/je050494l)
